Assay: refractive index (other wavelength) (dimensionless); xn = mol fraction of the nth substance listed
Conditions: 101 kPa, Liquid, Wavelength=633 nm, Standard Abbe refractometry

CCCCCCCCCC [decane] + COC(=O)OC
Conditions	refractive index
280.97 K, x2 = 0.517	1.4023
280.97 K, x2 = 0.915	1.3807
281.95 K, x2 = 0.537	1.4011
281.95 K, x2 = 0.913	1.3805
283 K, x2 = 0.549	1.4002
283 K, x2 = 0.903	1.3808
284.42 K, x2 = 0.581	1.3983
284.42 K, x2 = 0.89	1.3811
285.51 K, x2 = 0.615	1.3964
285.51 K, x2 = 0.876	1.3817
286.06 K, x2 = 0.63	1.3954
286.06 K, x2 = 0.867	1.382
286.31 K, x2 = 0.641	1.3948
286.31 K, x2 = 0.859	1.3825
286.44 K, x2 = 0.65	1.3943
286.44 K, x2 = 0.855	1.3827
286.64 K, x2 = 0.663	1.3936
286.64 K, x2 = 0.849	1.383
286.84 K, x2 = 0.671	1.3932
286.84 K, x2 = 0.842	1.3834
286.94 K, x2 = 0.677	1.3928
286.94 K, x2 = 0.837	1.3837
287.03 K, x2 = 0.689	1.3922
287.03 K, x2 = 0.831	1.3841
287.13 K, x2 = 0.692	1.392
287.13 K, x2 = 0.827	1.3843
287.21 K, x2 = 0.703	1.3914
287.21 K, x2 = 0.708	1.3911
287.21 K, x2 = 0.819	1.3847
287.21 K, x2 = 0.824	1.3844
287.23 K, x2 = 0.705	1.3913
287.23 K, x2 = 0.712	1.3909
287.23 K, x2 = 0.815	1.385
287.23 K, x2 = 0.82	1.3847
287.26 K, x2 = 0.716	1.3907
287.26 K, x2 = 0.817	1.3849
287.27 K, x2 = 0.712	1.3909
287.27 K, x2 = 0.813	1.3851
287.28 K, x2 = 0.716	1.3907
287.28 K, x2 = 0.817	1.3849
287.29 K, x2 = 0.716	1.3907
287.29 K, x2 = 0.809	1.3853
287.31 K, x2 = 0.72	1.3905
287.31 K, x2 = 0.814	1.385
287.32 K, x2 = 0.72	1.3905
287.32 K, x2 = 0.723	1.3903
287.32 K, x2 = 0.729	1.39
287.32 K, x2 = 0.804	1.3857
287.32 K, x2 = 0.806	1.3855
287.32 K, x2 = 0.809	1.3853
287.35 K, x2 = 0.725	1.3902
287.35 K, x2 = 0.731	1.3899
287.35 K, x2 = 0.735	1.3896
287.35 K, x2 = 0.741	1.3893
287.35 K, x2 = 0.796	1.3861
287.35 K, x2 = 0.799	1.3859
287.35 K, x2 = 0.803	1.3857
287.35 K, x2 = 0.809	1.3853
287.36 K, x2 = 0.737	1.3895
287.36 K, x2 = 0.798	1.386
287.37 K, x2 = 0.737	1.3895
287.37 K, x2 = 0.741	1.3893
287.37 K, x2 = 0.79	1.3865
287.37 K, x2 = 0.796	1.3861

From the NIST ThermoML archive (doi:10.1016/j.jct.2013.05.029)
